Laboratory results taken from patent US12295397B2, “Dietary peptides” (Diet4Life APS, priority 2015, dated 2025).
No end group written: not given here.

Experiments:
[1] = biological target: pepsin (Homo sapiens, UniProt P0DJD8); test: Pepsin digestion of meat, resistance of peptide to pepsin degradation; type: in vitro ADME; details: present in proteolytic digests
Procedure: Minced meat is diluted 1-10 times with distilled water, adjusted to pH 1-3 with hydrochloric acid, and incubated with 0.01-10% pepsin (w/w) at 4-40° C. for ½-12 h with adequate mixing. Insoluble material is removed by centrifugation at 100-1000×g for 3-30 min, and supernatant is neutralized with NaOH. Using sterile conditions, low molecular weight peptides in supernatant are recovered by tangential ultrafiltration at 4-40° C. for ½-12 h, and excess water is evaporated at 25-50° C. for up to 12 h. The concentrated dialysate is tested for bioactivity with cells and used for further purification by HPLC.

[2] = Stability of peptides in Fetal Bovine Serum, remaining activity read out in intestinal cells; type: in vitro ADME; details: fold more stable than NT(8-13)
Procedure: All peptides were incubated at 10^−5 M with Fetal Bovine Serum (FBS; final concentration of 66.7%) (Sigma Aldrich, Denmark) at 37° C. for 3 hours. The peptide degradation was terminated using 1 M phosphoric acid (final 0.4 M, pH ˜1.2) and neutralized to pH 7.2-7.4 with NaOH before testing activity in intestinal cells. As for small intestine homogenates, a zero degradation control was included for each peptide.
DC7-2, NT, DKPYIL (SEQ ID NO: 8) and NT-(8-13) (final concentration of 10^-6 M) were incubated either with FBS or with 270× diluted intestinal homogenate at 37° C. for various time points with shaking. Degradation was stopped with 1 M phosphoric acid and the samples were subsequently neutralized and immediately tested with intestinal cells as described above. Control for zero degradation was included for each peptide as above. […]
(§1) Notes for Tables 1) Stability in serum is expressed as fraction of peptide activity left after 10 min of incubation in serum at 37° C. compared with undigested sample as described in Examples. 2) Stability in intestine is expressed as % activity left after 30 min incubation in intestine homogenate at 37° C. as described in Examples.

[3] = Stability of peptides in small intestine homogenate, remaining activity read out in intestinal cells; type: in vitro ADME, mice; details: fold more stable than NT(8-13)
Procedure: Small intestines from 20 Swiss-Webster males were homogenized in 350 ml Dulbecco's phosphate-buffered saline (PBS) (pH 7.4) (ThermoFischer Scientific, Denmark) with a IKA® basic 18 Ultra-Turrax tissue homogenizer set a speed 5 followed by filtration using 100 μm nylon mesh filter. Protein concentration was 6 mg/ml using the bicinconinic acid assay (ThermoFischer Scientific, Denmark) and bovine serum albumin as standard. The intestine homogenate was diluted 10 times in HBSS containing 25 mM HEPES (pH 7.4), and further diluted 30×, 90×, 270×, 810× or 2430× before incubation with peptides. All solutions were prewarmed to 37° C. before mixing with peptide solutions.
Peptides were incubated at 10^−5 M with dilutions of small intestine homogenate at 37° C. for 90 minutes with shaking. Reactions were stopped by addition of 1 M phosphoric acid (final 0.4 M, pH ˜1.2). Each peptide incubation mix was then neutralized with NaOH to pH 7.2-7.4 and immediately tested for activity in intestinal cells. […]
as §1

pepsin, sequence (P0DJD8 63-388): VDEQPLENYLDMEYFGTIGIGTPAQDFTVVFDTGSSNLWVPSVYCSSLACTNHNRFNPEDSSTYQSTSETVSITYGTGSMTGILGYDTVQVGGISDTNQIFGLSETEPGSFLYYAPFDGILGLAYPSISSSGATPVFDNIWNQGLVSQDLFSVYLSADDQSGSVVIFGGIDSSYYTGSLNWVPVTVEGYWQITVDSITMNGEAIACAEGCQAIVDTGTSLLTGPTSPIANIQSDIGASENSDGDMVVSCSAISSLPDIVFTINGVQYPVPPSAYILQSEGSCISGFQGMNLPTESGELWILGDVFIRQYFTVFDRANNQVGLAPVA

Substance	Resistance to pepsin degradation [1]	Stability in serum relative to neurotensin (8-13) RRPYIL [2]	Stability in intestine homogenate relative to neurotensin (8-13) RRPYIL [3]
ASDKPYIL [Peptide 36036, A SDKPYIL]	resistant to pepsin degradation		
DKPYIL [Peptide 35978, D KPYIL]		around 100 times	100-1000 ×
